Like-named read-outs stand apart in the source and are kept apart here. Square brackets hold non-standard residues; d marks the D form. Peptide text beside a SMILES is read from it. pT = C[C@@H](OP(=O)(O)O)[C@H](N)C(=O)O; pS = N[C@@H](COP(=O)(O)O)C(=O)O
Columns and labels:
Type in all cases: binding
[1] = target: T1, wild-type aprataxin FHA domain (Homo sapiens, UniProt Q7Z2E3); assay: ITC of wild-type aprataxin FHA domain with XRCC1 and XRCC4 phosphopeptides; details: 22 °C, 50 mM HEPES pH 7.5, 150 mM NaCl, 5 mM β-mercaptoethanol, peptide in syringe, XRCC1 peptides 1 mM into 100 μM protein, XRCC4 peptides 300 μM into 30 μM protein, single-site model, representative of triplicate
T1 construct: aprataxin residues 1–105; GST (pGEX-6P-1) (N, cleaved yes); made in house; host or cells: Escherichia coli BL21 (DE3)
From the text: (§1) The genes for aprataxin residues 1–105 and APLF residues 1–106 were amplified using primer sets which incorporated 5′ BamHI and 3′ XhoI sites. PCR products and pGEX-6P-1 vector were digested with BamHI and XhoI and religated. All point mutations were generated using a QuickChange Site-Directed Mutagenesis Kit (Stratagene) following the manufacturer's recommended protocol.
(§2) For expression, the pGEX-6P-1/aprataxin-FHA constructs were transformed into Escherichia coli strain BL21 (DE3) and the pGEX-6P-1/APLF-FHA constructs transformed into the strain Rosetta2 (DE3). Cells were grown in LB at 37 °C to an A600 of 0.5, induced with 0.4 mM isopropyl 1-thio-β-D-galactopyranoside and incubated at 18 °C for a further 16 h before harvesting. Cells were lysed by sonication and clarified by centrifugation (20,000 × g × 30 min). The supernatant was applied to a glutathione-4B resin (Amersham) and cleaved from the resin with rhinovirus 3C protease. Proteins were purified further by gel-filtration chromatography on a Superdex 75 matrix in 20 mM Tris pH 7.5, 150 mM NaCl, 5 mM DTT. Selenomethionine-labelled APLF L91 M protein was expressed in Rosetta2 (DE3) cells cultured in SelenoMet base media and nutrients supplemented with seleno-methionine solution (Molecular Dimensions Ltd.) and purified as the wild-type protein.
(§3) Phosphopeptides based on the XRCC1 sequence 515-YAGSTDENTDSEEHQ-529 and the XRCC4 sequence 229-YDESTDEES-237 were synthesised with amidated C-termini to avoid potential end-effects of a free carboxy-terminus by Dr. W. Mawby (University of Bristol), purified by HPLC and characterised by mass spectrometry. FHA-phosphopeptide binding was quantified by isothermal titration calorimetry using a Microcal Omega VP-ITC calorimeter (MicroCal Inc., Northampton, MA). Protein was dialysed against ITC buffer (50 mM HEPES pH 7.5, 150 mM NaCl, 5 mM β-mercaptoethanol) and peptides were dissolved in the dialysis buffer. Experiments were carried out at 22 °C and involved 30 successive 10 μl injections of peptide solution into a sample cell containing protein solution. Titrations with XRCC1 peptides used peptide at 1 mM and protein at 100 μM and titrations with XRCC4 peptides used peptide at 300 μm and protein at 30 μM. Heats of dilution were subtracted and binding isotherms were plotted and analysed with MicroCal origin version 7.0, assuming a single-site binding model.

[2] = target: T2, wild-type APLF FHA domain (Homo sapiens, UniProt Q8IW19); assay: ITC of wild-type APLF FHA domain with XRCC1 and XRCC4 phosphopeptides; details: 22 °C, 50 mM HEPES pH 7.5, 150 mM NaCl, 5 mM β-mercaptoethanol, peptide in syringe, XRCC1 peptides 1 mM into 100 μM protein, XRCC4 peptides 300 μM into 30 μM protein, single-site model, representative of triplicate
T2 construct: APLF residues 1–106; GST (pGEX-6P-1) (N, cleaved yes); made in house; host or cells: Escherichia coli Rosetta2 (DE3)
T2 sequence (Q8IW19 1-106): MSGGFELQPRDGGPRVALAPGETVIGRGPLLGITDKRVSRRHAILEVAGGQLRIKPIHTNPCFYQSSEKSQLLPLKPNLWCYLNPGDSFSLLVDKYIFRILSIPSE
From the text: as §1
For expression, the pGEX-6P-1/aprataxin-FHA constructs were transformed into Escherichia coli strain BL21 (DE3) and the pGEX-6P-1/APLF-FHA constructs transformed into the strain Rosetta2 (DE3). Cells were grown in LB at 37 °C to an A600 of 0.5, induced with 0.4 mM isopropyl 1-thio-β-D-galactopyranoside and incubated at 18 °C for a further 16 h before harvesting. […]
Phosphopeptides based on the XRCC1 sequence 515-YAGSTDENTDSEEHQ-529 and the XRCC4 sequence 229-YDESTDEES-237 were synthesised with amidated C-termini to avoid potential end-effects of a free carboxy-terminus by Dr. W. Mawby (University of Bristol), purified by HPLC and characterised by mass spectrometry. FHA-phosphopeptide binding was quantified by isothermal titration calorimetry using a Microcal Omega VP-ITC calorimeter (MicroCal Inc., Northampton, MA). […] Heats of dilution were subtracted and binding isotherms were plotted and analysed with MicroCal origin version 7.0, assuming a single-site binding model.

[3] = target: T3, R42A Mutant of aprataxin FHA domain (Homo sapiens, UniProt Q7Z2E3, R56A); assay: ITC of R42A mutant of aprataxin FHA domain with XRCC1 and XRCC4 phosphopeptides; details: 22 °C, 50 mM HEPES pH 7.5, 150 mM NaCl, 5 mM β-mercaptoethanol, single-site model
T3 construct: aprataxin residues 1–105; GST (pGEX-6P-1) (N, cleaved yes); made in house; host or cells: Escherichia coli BL21 (DE3)
From the text: as §1, §2, §3

aprataxin FHA domain = target: T4, aprataxin FHA domain (Homo sapiens, UniProt Q7Z2E3); assay: NMR (1H-SOFAST-HMQC) titrations of aprataxin FHA domain with XRCC1 phosphopeptides; details: NMR titration, 22 °C
T4 construct: aprataxin residues 1–105; GST (pGEX-6P-1) (N, cleaved yes); made in house; host or cells: Escherichia coli BL21 (DE3)
Experimental: NMR experiments were carried out at 22 °C on Bruker Avance II+ 600 MHz and Avance III 700 MHz spectrometers, each equipped with a cryogenic triple-resonance probe. Protein and peptides were prepared in NMR buffer (20 mM Na Acetate pH 5.8, 50 mM NaCl, 2 mM DTT). Three-dimensional HNCA, HNCO, HNCACB and CBCA(CO)NH experiments were performed to obtain backbone assignments. NMR titration experiments were carried out by adding the unlabelled XRCC1 peptides to ^15N-labeled aprataxin FHA domain. The initial protein concentration was 92 μM and volumes of 2 mM stock solution of peptide were added until the protein:peptide ratio was 1:4. ^1H-SOFAST-HMQC [36] spectra were measured after each titration step. All spectra were processed using nmrPipe, and analysed using CARA/NEASY [38]. The weighted chemical shift change (in ppm units) of each amide proton (ΔδHN) and nitrogen (ΔδN) was calculated according to the equation: Δδtotal = [(ΔδHNWHN)^2 + (ΔδNWN)^2]^1/2 with WHN = 1 and WN = 0.154 [39]. Weighted chemical shifts for residues D37, V45, Q46, V61 and V63 were plotted against peptide concentration to determine individual Kds and averaged to determine the apparent Kd.

[4] = target: T5, K38A Mutant of aprataxin FHA domain (Homo sapiens, UniProt Q7Z2E3, K52A); assay: ITC of K38A mutant of aprataxin FHA domain with XRCC1 and XRCC4 phosphopeptides; details: 22 °C, 50 mM HEPES pH 7.5, 150 mM NaCl, 5 mM β-mercaptoethanol, single-site model
T5 construct: aprataxin residues 1–105; GST (pGEX-6P-1) (N, cleaved yes); made in house; host or cells: Escherichia coli BL21 (DE3)
From the text: as §1, §2, §3

T4 sequence (Q7Z2E3 15-119): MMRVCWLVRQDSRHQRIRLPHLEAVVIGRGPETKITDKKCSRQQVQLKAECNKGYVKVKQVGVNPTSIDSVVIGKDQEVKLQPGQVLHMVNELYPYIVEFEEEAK
T5 sequence (Q7Z2E3 15-119 K52A): as the sequence (Q7Z2E3 15-119) above, with K38A counted along it
T3 sequence (Q7Z2E3 15-119 R56A): as the sequence (Q7Z2E3 15-119) above, with R42A counted along it
T1 sequence (Q7Z2E3 15-119): as the sequence (Q7Z2E3 15-119) above

How did the Kd [1] turn out when `C[C@H](NC(=O)[C@@H](N)Cc1ccc(O)cc1)C(=O)NCC(=O)N[C@@H](COP(=O)(O)O)C(=O)N[C@H](C(=O)N[C@@H](CC(=O)O)C(=O)N[C@@H](CCC(=O)O)C(=O)N[C@@H](CC(N)=O)C(=O)N[C@H](C(=O)N[C@@H](CC(=O)O)C(=O)N[C@@H](CO)C(=O)N[C@@H](CCC(=O)O)C(=O)N[C@@H](CCC(=O)O)C(=O)N[C@@H](Cc1c[nH]cn1)C(=O)N[C@@H](CCC(N)=O)C(N)=O)[C@@H](C)OP(=O)(O)O)[C@@H](C)OP(=O)(O)O` [YAGpSpTDENpTDSEEHQ] (H-YAG[pS][pT]DEN[pT]DSEEHQ-NH2) was run?
Its Kd is 500 ± 50 nM.

And the Kd [2]?
The Kd was 11000 ± 500 nM.

And the Kd [3]?
The Kd was 28700 ± 1900 nM.

What about the Kd (aprataxin FHA domain; 20 mM Na Acetate pH 5.8, 50 mM NaCl, 2 mM DTT, 92 µM 15N aprataxin FHA, 2 mM peptide stock, read-out: Kd from weighted chemical shift of residue Asp37) of the same molecule?
Its Kd is 100 nM.

What about the Kd (aprataxin FHA domain; pH 5.8, 92 µM aprataxin FHA, read-out: Kd from weighted chemical shift of residue Gln46) of the same molecule?
Its Kd is 100 nM.

And the Kd (aprataxin FHA domain; pH 5.8, 92 µM aprataxin FHA, read-out: Kd from weighted chemical shift of residue Val45)?
Its Kd is 600 nM.

And the Kd (aprataxin FHA domain; pH 5.8, 92 µM aprataxin FHA, read-out: Kd from weighted chemical shift of residue Val61)?
The Kd was 100 nM.

And the Kd (aprataxin FHA domain; pH 5.8, 92 µM aprataxin FHA, read-out: Kd from weighted chemical shift of residue Val63)?
Its Kd is 500 nM.

And the Kd (aprataxin FHA domain; pH 5.8, mean of individual Kds of D37, V45, Q46, V61, V63, read-out: Kd, Mean (SEM) over five residues (apparent Kd))?
Its Kd is 300 nM.

And the Kd (aprataxin FHA domain; pH 5.8, tighter binders not well defined due to high protein concentration, read-out: overall apparent affinity (Kdapp) estimated from NMR titrations)?
The Kd was less than 1000 nM.

What about the Kd [4] of the same molecule?
The Kd was 4400 ± 300 nM.

From PMC4655838, “Versatility in phospho-dependent molecular recognition of the XRCC1 and XRCC4 DNA-damage scaffolds by aprataxin-family FHA domains” (DNA Repair, 2015)
